Where a name gives a salt, the structure may show the parent alone.

The nature of series [1]: mouse writhing assay (acetic acid), analgesic activity. Format: in vivo, mouse (Cox standard males). Particulars: for ED50 / PT (peak analgesic time), Mouse Writhing, Oral / PT (peak analgesic time), Mouse Writhing, Subcutaneous: mouse; for ED50: dose giving significant peak analgesic effect in 50 percent of test animals; for PT (peak analgesic time), Mouse Writhing, Oral / PT (peak analgesic time), Mouse Writhing, Subcutaneous: time after dosing of maximum analgesic response. On the procedure: Analgesic activity for representative compounds of the instant invention was determined with two standard animal techniques. The mouse writhing assay used was a modification of the method wherein frequency of writhing [Hendershot and Sorsaith, J. Pharm. Exp. Ther. 125, 237 (1959)] is observed after intra peritoneal administration of 0.6 percent acetic acid [Koster et al., Fed. Proc. Soc. Expt. Biol. 18, 412 (1959)]. The mice were Cox standard males weighting 20-22 gm. The number of writhes was determined for each of five mice during the period 5-15 minutes after acetic acid treatment. The percent inhibition due to drug treatment was determined by comparison with control mice.
(§1) Table 1 below gives the results of testing representative compounds of this invention as analgesics by the above methods. The first four columns in Table 1 describe the particular compound tested. The next eight columns give the mouse writhing results and the rat tail jerk results both by oral and subcutaneous administration. The columns headed PT ("Peak Analgesic Time") give the time in minutes after dosing at which the maximum analgesic responses are measured. The columns headed "ED50 (mg./kg.)" give the doses (ED50) in milligrams per kilogram (mg./kg.) of body weight that produce a significant peak analgesic effect in 50 percent of test animals.

Series [2] is described as follows: rat tail jerk assay, analgesic activity. Particulars: for ED50: dose giving significant peak analgesic effect in 50 percent of test animals; for PT (peak analgesic time), Rat Tail Jerk, Oral / PT (peak analgesic time), Rat Tail Jerk, Subcutaneous: time after dosing of maximum analgesic response. Format: in vivo, rat (Sprague-Dawley females).
Text: The other analgesic method was the rat tail jerk assay described by Robbins, J. Amer. Pharm. Assoc. Sci. Ed., 44, 497 (1955). The rats were Sprague-Dawley females weighing 70-90 g. Briefly, the tail was held on a temperature controlled tail rest near a nichrome resistance wire through which a current could flow. A switch used to start the flow of current to heat the wire simultaneously started a timer. When a jerk of the tail was detected by the operator, the switch was released and the latency of the response was recorded as the "reaction time." The tail was placed near the hot wire stimulus for a maximum duration of 30 seconds. Twenty rats were tested as a group in a randomized order. At least five rats were used for each treatment and each rat was dosed and tested only once.
as §1

Series [3] is described as follows: analgesic activity, general statements. Type of series: in vivo. As to conditions: in words.
The conditions of series [4]: cited from earlier work.
[5] abbreviates: oral, read-out: ED50, Mouse Writhing, Oral.
[6] abbreviates: sc, subcutaneous, read-out: ED50, Mouse Writhing, Subcutaneous.
Setting [7] is: oral, read-out: ED50, Rat Tail Jerk, Oral.
Setting [8] is: sc, subcutaneous, read-out: ED50, Rat Tail Jerk, Subcutaneous.

Broadly, the ED50 is the dose that gives a 50% effect, or the effect in half of the subjects. On to `Cc1ccc(C(C2COCOC2)N(C)C)cc1.O=C(O)/C=C\C(=O)O` (stereo not drawn) [dl 4-CH3 --C6 H4, H, Maleate, N,N-dimethyl-α-(4-methylphenyl)-m-dioxane-5-methylamine maleate], for which the ED50 in series [1] (setting [5]) came out at 110 mg/kg; in series [1] (setting [6]) it was 20 mg/kg; in series [2] (setting [7]), 60 mg/kg; in series [2] (setting [8]), 8 mg/kg. Also, the “PT (peak analgesic time), Mouse Writhing, Oral” value (from here on “PT … Mouse Writhing, Oral”) in series [1] (oral) is 45 min. For the same compound, the “PT (peak analgesic time), Mouse Writhing, Subcutaneous” value (from here on “PT … Mouse Writhing, Subcutaneous”) in series [1] (subcutaneous) stood at 30 min. For the same compound, the “PT (peak analgesic time), Rat Tail Jerk, Oral” value (from here on “PT … Rat Tail Jerk, Oral”) in series [2] (oral) was 45 min. The “PT (peak analgesic time), Rat Tail Jerk, Subcutaneous” value (“PT … Rat Tail Jerk, Subcutaneous” for short) in series [2] (subcutaneous) worked out at 30 min.

As for `CN(C)C(c1ccccc1)C1COCOC1` (single isomer, unassigned) [1-N,N-dimethyl-α-phenyl-m-dioxane-5-methylamine], the analgesic activity entry in series [3] is given as “analgesically active”.

With `CC1OCC(CN(C)C)O1` (stereo not drawn) [N,N,2-Trimethyl-1,3-dioxolane-4-methylamine], in series [4], the “analgesic activity (literature)” value is on record as “mild analgesic” and the “side effects (literature)” value is on record as “cholinergic side effects”.

Take `CN(C)C(c1ccccc1)C1COCOC1` (single isomer, unassigned) [l C6 H5, H, HCl, l-N,N-dimethyl-α-phenyl-m-dioxane-5-methylamine hydrochloride]: the median effective dose (ED50) in series [1] (setting [5]) was 16 mg/kg; in series [1] (setting [6]) it was 6 mg/kg; in series [2] (setting [7]) it was 10 to 20 mg/kg; in series [2] (setting [8]), 7 mg/kg. The “PT … Mouse Writhing, Oral” value in series [1] (oral) amounted to 15 min. The “PT … Mouse Writhing, Subcutaneous” value in series [1] (subcutaneous) is 15 min. Besides, the “PT … Rat Tail Jerk, Oral” value in series [2] (oral) was found to be 15 min. The “PT … Rat Tail Jerk, Subcutaneous” value in series [2] (subcutaneous) amounted to 15 min.

For `CC1OCC(C(c2ccccc2)N(C)C)CO1` (stereo not drawn) [dl C6 H5, CH3, N,N,2-Trimethyl-α-phenyl-m-dioxane-5-methylamine], the ED50 in series [1] (setting [5]) was found to be 19 mg/kg; in series [1] (setting [6]), 3.6 mg/kg; in series [2] (setting [7]), 12 mg/kg; in series [2] (setting [8]) it was 2.8 mg/kg. In addition, in series [1] (oral), the “PT … Mouse Writhing, Oral” value amounted to 15 min. Further, the “PT … Mouse Writhing, Subcutaneous” value in series [1] (subcutaneous) was found to be 15 min. Further, in series [2] (oral), the “PT … Rat Tail Jerk, Oral” value turned out to be 15 min. Moreover, in series [2] (subcutaneous), the “PT … Rat Tail Jerk, Subcutaneous” value stood at 20 min.

Turning to `CCC1OCC(C(c2ccccc2)N(C)C)CO1` (stereo not drawn) [dl C6 H5, C2 H5, N,N-dimethyl-2-ethyl-α-phenyl-m-dioxane-5-methylamine], the “duration of analgesic action in mice” value in series [1] (mice) is on record as “long acting in mice”. The ED50 came to 23 mg/kg in series [1] (setting [5]), 19 mg/kg in series [1] (setting [6]), 21 mg/kg in series [2] (setting [7]) and 3.4 mg/kg in series [2] (setting [8]). Besides, the “PT … Mouse Writhing, Oral” value in series [1] (oral) turned out to be 75 min. For the same compound, in series [1] (subcutaneous), the “PT … Mouse Writhing, Subcutaneous” value turned out to be 75 min. Further, the “PT … Rat Tail Jerk, Oral” value in series [2] (oral) came out at 15 min. Moreover, the “PT … Rat Tail Jerk, Subcutaneous” value in series [2] (subcutaneous) worked out at 15 min.

As to `CN(C)C(c1cccnc1)C1COCOC1.Cl.Cl` (stereo not drawn) [dl 3-pyridyl, H, 2HCl, N,N-dimethyl-α-(3-pyridyl)-m-dioxane-5-methylamine dihydrochloride], the median effective dose (ED50) in series [1] (setting [5]) was 25 mg/kg; in series [1] (setting [6]), 10 mg/kg; in series [2] (setting [7]), 7 mg/kg; in series [2] (setting [8]) it was 7 mg/kg. The “PT … Mouse Writhing, Oral” value in series [1] (oral) came to 30 min. In series [1] (subcutaneous), the “PT … Mouse Writhing, Subcutaneous” value was 30 min. Further, in series [2] (oral), the “PT … Rat Tail Jerk, Oral” value stood at 15 min. Moreover, in series [2] (subcutaneous), the “PT … Rat Tail Jerk, Subcutaneous” value worked out at 15 min.

Take `c1ccc(C2(c3ccccc3)OC[C@H]([C@@H]3CCCCN3)O2)cc1` [Dexoxadrol, d-2,2-diphenyl-4-(2-piperdyl)-1,3-dioxolane hydrochloride]: in series [4], the “analgesic activity (literature)” value is “mild analgesic” and the “side effects (literature)” value is reported as “high incidence of psychotomimetic side effects”.

Regarding `CN(C)C(c1ccccc1)C1COCOC1.Cl` (stereo not drawn) [dl C6 H5, H, HCl, N,N-dimethyl-α-phenyl-m-dioxane-5-methylamine hydrochloride], the median effective dose (ED50) in series [1] (setting [5]) turned out to be 28 mg/kg; in series [1] (setting [6]), 15 mg/kg; in series [2] (setting [7]), 27 mg/kg; in series [2] (setting [8]), 4.5 mg/kg. In series [1] (oral), the “PT … Mouse Writhing, Oral” value worked out at 45 min. For the same compound, in series [1] (subcutaneous), the “PT … Mouse Writhing, Subcutaneous” value came to 15 min. The “PT … Rat Tail Jerk, Oral” value in series [2] (oral) turned out to be 15 min. For the same compound, the “PT … Rat Tail Jerk, Subcutaneous” value in series [2] (subcutaneous) is 15 min.

Source of the values: patent publication US3962269A, “1,3-Propandiol intermediates” (Eli Lilly and Company, priority 1975, dated 1976).
